Laboratory results: ChEMBL document CHEMBL1128828, “Convergent approach to water soluble camptothecin derivatives” (1995)

Legend:
Assay type in all cases: functional
Conditions in all cases: route intravenous
Mus musculus [1] = test: Inhibitory effect on the growth of Colon 26 tumor cell line transplanted subcutaneously into mice at dose of 2 mg/kg/day x 5 administered intravenously
Mus musculus [2] = test: Inhibitory effect on the growth of P388/CPT tumor cell line transplanted subcutaneously into mice at dose of 2 mg/kg/day x 5 administered intravenously
Mus musculus [3] = test: Inhibitory effect on the growth of Colon 26 tumor cell line transplanted subcutaneously into mice at dose of 4 mg/kg/day x 5 administered intravenously
Mus musculus [4] = test: Inhibitory effect on the growth of P388/CPT tumor cell line transplanted subcutaneously into mice at dose of 4 mg/kg/day x 5 administered intravenously

Structure (SMILES) | T/C (Mus musculus [1]) | T/C (Mus musculus [2]) | T/C (Mus musculus [3]) | T/C (Mus musculus [4])
CCC1(O)C(=O)OCc2c1cc1n(c2=O)Cc2c-1nc1cc3c(cc1c2CCN)OCO3.O=C(O)C(F)(F)F (stereo not drawn) | 55% | 65% | 49% | 36%
CC[C@@]1(O)C(=O)OCc2c1cc1n(c2=O)Cc2cc3c(CN(C)C)c(O)ccc3nc2-1 [TOPOTECAN] | 60% | 59% | 51% | 46%
